Laboratory results: ChEMBL document CHEMBL1914322, “Novel terpenoids of the fungus Aspergillus insuetus isolated from the Mediterranean sponge Psammocinia sp. collected along the coast of Israel” (2011)
Converted amounts (≈) assume the structure as drawn. The source made the active and inactive calls. The rule behind the calls is not given here.

Columns and labels:
[1] = tested on: Neurospora crassa; test: Antifungal activity against Neurospora crassa 74-OR23-1A after 12 hrs; assay type: functional
[2] = tested on: MOLT-4; test: Cytotoxicity against human MOLT4 cells at […]; assay type: functional

SMILES	MIC [1] [µM]	inhibition [2]
CC1(C)OC(=O)C=C[C@]2(C)[C@@H]3C[C@@]4(C)C(=O)[C@@]5(C)C[C@@H]6C(=O)OC[C@@]64O[C@@]3(CC[C@@H]12)C5 [INSUETOLIDE A]	140 (≈ 60 µg/mL)	inactive
CC1(C)CCC[C@@]2(C)[C@H]1[C@H](O)C=C1COC(=O)[C@@]12O [STROBILACTONE A]	242 (≈ 64.5 µg/mL)	inactive
CC(O)C(O)/C=C/C=C/C(=O)O[C@@H]1C=C2COC(=O)[C@]2(O)[C@@]2(C)CCCC(C)(C)[C@H]12 (stereo not given in full)	162 (≈ 68.1 µg/mL)	–
